Literature values in patent US20120071554A1, “DEUTERATED 2-PROPYLPENTANOIC ACID COMPOUNDS” (priority 2008, published 2012).

administered dose excreted in the urine as the glucuronide conjugate (adult patients on monotherapy): 30-50%
dose excreted as products of other oxidative mechanisms (adult patients on monotherapy): 15-20%
dose excreted as the products of mitochondrial beta-oxidation (adult patients on monotherapy): over 40%
dose excreted unchanged in the urine (in vivo): Less than 3%
increase of the valproate free-fraction (pediatric patients co-dosed with valproate and aspirin, inhibition of beta-oxidation pathway): 4 fold
Compound: CCCC(CCC)C(=O)O [Valproate, sodium hydrogen bis(2-propylpentanoate)]
